From patent US4766114A, “Tricyclic compound called 5-((3-chloro-6-methyl-5,5-dioxo-6,11-dihydro-dibenzo (c,f) (1,2)thiazepin-11-yl)-amino) pentanoic acid” (ADIR Et Compagnie, priority 1986, dated 1988)
Like-named read-outs stand apart in the source and are kept apart here.

How the values were obtained:
[1] = tested on: reserpine-induced ptosis in the mouse; test: Effects on reserpine-induced ptosis in the mouse; assay type: in vivo, mouse (male NMRI); conditions: 25 mg.kg^-1 IP, reserpine 2 mg.kg^-1 IV
Description: This experiment was carried out on groups of 20 male NMRI mice (IFFA-CREDO), with an average weight of 20±2 g. […] GOURET et al., in J. Pharmacol., 1977, 8, (3) p. 333-350.
One hour after the injection of the reserpine, the animals were placed on a 5 cm×5 cm square, wood platform for 20 seconds. Ptosis was considered to be positive if the animal's eyes remained shut during the 20 seconds after it was placed on the platform. On the other hand, the animal was considered to be protected if the eyes were not completely closed during the 20 seconds following the moment when it was placed on the platform.

[2] = tested on: reserpine-induced hypothermia in the mouse; test: Effects on reserpine-induced hypothermia in the mouse; assay type: in vivo, mouse (NMRI); conditions: 50 mg.kg^-1 IP
Description: This study was carried out on experimental groups of 10 NMRI mice (IFFA-CREDO) fasted for 18 hours. […] One hour later, all the animals were given an intraperitoneal injection of 2 mg.kg^-1 of reserpine. Hypothermia was evaluated 4 hours after the injection of reserpine by measuring the rectal temperature using an electric thermometer.

[3] = tested on: tetrabenazine-induced ptosis in the mouse; test: Effects on tetrabenazine-induced ptosis in the mouse; assay type: in vivo, mouse (male CD)
Description: Male CD mice (Charles River), of average weight 23 g, were distributed in groups of 12 animals. […] The dose of products tested was 25 mg.kg^-1. The animals were observed individually 5, 25, 35 and 55 minutes after the injection of the tetrabenazine and the intensity of the ptosis was evaluated using a 0 to 4 rating scale.

[4] = tested on: aggressivity of isolated mice; test: Effects on the aggressivity of isolated mice; assay type: in vivo, mouse (male CD); conditions: for % OF PROTECTED COUPLES (no attack) / MEAN NUMBER OF ATTACKS ± SD: 30 minutes before test; for % OF PROTECTED COUPLES (no attack): 10 couples; for MEAN NUMBER OF ATTACKS ± SD: 3 minute test
Description: The male CD mice (Charles RIVER) used in this study were housed in small (18×10×10 cm) individual cages with the walls painted black, with one mouse per cage, for several months, at a constant temperature of 21° C. and in a light-darkness cycle of 12 hours. The average weight of the mice at the time of the study was 45 g.
Each experimental group comprised 10 couples of mice previously selected for their aggressivity. The aggressivity test was carried out on non-fasting animals. The "intruding" mouse of each couple was placed in the cage containing the other mouse for a 3 minute period.
The product was administered by the intraperitoneal route, 30 minutes before the test.

antidepressant activity [5] = test: Antidepressant activity (standard pharmacological tests); assay type: in vivo
Excerpt: The standard pharmacological tests used to evaluate the antidepressant activity of new chemical compounds, described, in particular, in Enna S. J. et al. "Antidepressants: Neurochemical Behavioral, and Clinical Perspectives" Raven Press N.Y. 1981, p.

antidepressant activity [6] = conditions: French Pat. No. 71.32197; cited from earlier work
[7] = 20 mg.kg^-1 IP, controls 0%, S = statistically significant change

SMILES: CN1c2ccccc2C(NCCCCC(=O)O)c2ccc(Cl)cc2S1(=O)=O (stereo not shown) [compound of the formula I, 5-[(3-chloro-6-methyl-5,5-dioxo-6,11-dihydro-dibenzo(c,f)(1,2)thiazepin-11-yl)-amino]pentanoic acid]
- antagonism of reserpine-induced ptosis (in words) [1]: much more active
- animals protected from ptosis ([1]; 20 male NMRI mice per group): 53%
- antagonism of reserpine-induced hypothermia (in words) [2]: much higher
- FINAL TEMPERATURES MEAN ± SD ([2]; rectal temperature 4 hours after reserpine 2 mg.kg^-1 IP, controls 24.7 ± 0.88): 30.9 ± 3.7
- activity against tetrabenazine-induced ptosis compared with TAHA (in words) ([3]; 25 mg.kg^-1 IP): much greater and long-lasting activity than TAHA
- % controls (% change of the mean ptosis scores in comparison with the controls), 5 MINUTES ([3]; 25 mg.kg^-1 IP, 5 minutes after tetrabenazine 20 mg.kg^-1): -69%
- MEAN VALUE OF THE PTOSIS INTENSITY SCORE ± SD, 5 MINUTES ([3]; 25 mg.kg^-1 IP, 5 minutes after tetrabenazine 20 mg.kg^-1, 0 to 4 scale, controls 1.33 ± 0.65): 0.42 ± 0.51
- % controls (% change of the mean ptosis scores in comparison with the controls), 25 MINUTES ([3]; 25 mg.kg^-1 IP, 25 minutes after tetrabenazine 20 mg.kg^-1): -32%
- % controls (% change of the mean ptosis scores in comparison with the controls), 35 MINUTES ([3]; 25 mg.kg^-1 IP, 35 minutes after tetrabenazine 20 mg.kg^-1): -35%
- MEAN VALUE OF THE PTOSIS INTENSITY SCORE ± SD, 35 MINUTES ([3]; 25 mg.kg^-1 IP, 35 minutes after tetrabenazine 20 mg.kg^-1, 0 to 4 scale, controls 2.83 ± 0.58): 1.83 ± 0.39
- MEAN VALUE OF THE PTOSIS INTENSITY SCORE ± SD, 55 MINUTES ([3]; 25 mg.kg^-1 IP, 55 minutes after tetrabenazine 20 mg.kg^-1, 0 to 4 scale, controls 3.08 ± 0.51): 2.42 ± 0.67
- % controls (% change of the mean ptosis scores in comparison with the controls), 55 MINUTES ([3]; 25 mg.kg^-1 IP, 55 minutes after tetrabenazine 20 mg.kg^-1, NS = Non significant): -22%
- MEAN VALUE OF THE PTOSIS INTENSITY SCORE ± SD, 25 MINUTES ([3]; mouse, in vivo, ip): 1.75 ± 0.45
- % OF PROTECTED COUPLES (no attack) ([4]; 10 mg.kg^-1 IP, controls 10%): 20%
- MEAN NUMBER OF ATTACKS ± SD ([4]; 10 mg.kg^-1 IP, water controls 6.7 ± 4.7 (ATAH), 5.4 ± 2.8 (formula I)): 7.2 ± 5.9
- anti-aggressive effect (in words) ([4]; 20 mg.kg^-1 IP): clear anti-aggressive effect
- % OF PROTECTED COUPLES (no attack) [4, 7]: 60%
- anti-aggressive activity compared with TAHA (in words) ([4]; isolated mice, IP): much greater than that of TAHA
- antidepressant activity (in words) (antidepressant activity [5]): much greater antidepressant activity
- antidepressant activity (in words) (antidepressant activity [5]; listed as 5-[(3-chloro-6-methyl-5,5-dioxo-6,11-dihydrodibenzo(c,f)(1,2)thiazepin-11-yl)-a): very potent antidepressant activity

SMILES: CN1c2ccccc2C(NCCCCCCC(=O)O)c2ccc(Cl)cc2S1(=O)=O (stereo not shown) [TAHA, 7-[(3-chloro-6-methyl-5,5-dioxo-6,11-dihydro-dibenzo(c,f)(1,2)thiazepin-11-yl)-amino]heptanoic acid, reference compound]
- % OF PROTECTED COUPLES (no attack) ([4]; 10 mg.kg^-1 IP, controls 10%): 10%
- anti-aggressive effect (in words) ([4]; 20 mg.kg^-1 IP): clear anti-aggressive effect
- % OF PROTECTED COUPLES (no attack) [4, 7]: 40%
- MEAN NUMBER OF ATTACKS ± SD ([4]; 20 mg.kg^-1 IP, water controls 8.3 ± 6.0): 3.7 ± 4.9
- antidepressant properties (in words) (antidepressant activity [6]): antidepressant properties
